We go through 22 compounds from ChEMBL document CHEMBL3124799, “Discovery of 1,3,4-oxidiazole scaffold compounds as inhibitors of superoxide dismutase expression” (Bioorg Med Chem Lett, 2014).

Series [1] relates to Fibroblast. Description: Relative expression of human SOD1 expressed in mouse fibroblasts at 10 uM after 48 hrs by ELISA.
Series [2] deals with Fibroblast. The series is described as follows: Inhibition of human SOD1 expressed in mouse fibroblasts at 10 uM after 48 hrs by ELISA relative to control. The class given is functional.
The subject of series [3] is Fibroblast. The series is described as follows: Inhibition of human SOD1 expressed in mouse fibroblasts after 48 hrs by ELISA relative to control. Type of series: functional, cell-based.
A short description of series [4]: Drug uptake in serum of mouse expressing SOD1 G93A mutant at 20 mg/kg, ip after 24 hrs. The class given is ADME, organism-based. The conditions noted are these: read-out: Drug uptake. On the set-up: dose 20 mg/kg, route intraperitoneal.
The test system of series [5] is Mus musculus. The series is described as follows: Reduction in SOD1 G93A mutant expression in cerebellum of mouse at 20 mg/kg, ip administered every alternate day for 26 days. Set-up: dose 20 mg/kg. The class given is functional, organism-based.
Series [6] is described as follows: Drug uptake in spinal cord of mouse expressing SOD1 G93A mutant at 20 mg/kg, ip after 1 hr. The class given is ADME, organism-based. On the set-up: dose 20 mg/kg, route intraperitoneal. The note with it: read-out: Drug uptake.
A short description of series [7]: Drug uptake in serum of mouse expressing SOD1 G93A mutant at 20 mg/kg, ip after 1 hr. Type of series: ADME, organism-based. On the set-up: dose 20 mg/kg, route intraperitoneal. The conditions noted are these: read-out: Drug uptake.
In series [8] the test system is Mus musculus. The series is described as follows: Reduction in SOD1 G93A mutant expression in cerebral cortex of mouse at 20 mg/kg, ip administered every alternate day for 26 days. The class given is functional, organism-based. Set-up: dose 20 mg/kg.
Series [9] can be described thus: Drug uptake in spinal cord of mouse expressing SOD1 G93A mutant at 20 mg/kg, ip after 24 hrs. The class given is ADME, organism-based. Set-up: dose 20 mg/kg, route intraperitoneal. The note with it: read-out: Drug uptake.
The test system of series [10] is Mus musculus. The series is described as follows: Reduction in SOD1 G93A mutant expression in brain stem of mouse at 20 mg/kg, ip administered every alternate day for 26 days. Set-up: dose 20 mg/kg. The class given is functional, organism-based.
For series [11], the system named is Mus musculus. The series is described as follows: Reduction in SOD1 G93A mutant expression in spinal cord of mouse assessed as at 20 mg/kg, ip administered every alternate day for 26 days. The class given is functional, organism-based. Set-up: dose 20 mg/kg.
Series [12] in a line: Drug uptake in brain of mouse expressing SOD1 G93A mutant at 20 mg/kg, ip after 1 hr. Type of series: ADME, organism-based. Set-up: dose 20 mg/kg, route intraperitoneal. The conditions noted are these: read-out: Drug uptake.
Series [13] is described as follows: Drug uptake in brain of mouse expressing SOD1 G93A mutant at 20 mg/kg, ip after 24 hrs. The note with it: read-out: Drug uptake. The class given is ADME, organism-based. On the set-up: dose 20 mg/kg, route intraperitoneal.
Series [14] can be described thus: Drug uptake in spinal cord of nontransgenic mouse at 10 mg/kg, ip after 4 hrs.
Series [15] in a line: Drug uptake in serum of mouse expressing SOD1 G93A mutant at 10 mg/kg, ip after 4 hrs. Type of series: ADME, organism-based. On the set-up: dose 10 mg/kg, route intraperitoneal. The note with it: read-out: Drug uptake.
A further series deals with Brain. Description: Drug uptake in brain of nontransgenic mouse at 10 mg/kg, ip after 24 hrs. The conditions noted are these: in vivo.
Series [16] can be described thus: Drug uptake in serum of mouse expressing SOD1 G93A mutant at 10 mg/kg, ip after 2 hrs. The class given is ADME, organism-based. Set-up: dose 10 mg/kg, route intraperitoneal. The conditions noted are these: read-out: Drug uptake.
Series [17] can be described thus: Drug uptake in serum of nontransgenic mouse at 10 mg/kg, ip after 24 hrs.
The nature of series [18]: Drug uptake in spinal cord of mouse expressing SOD1 G93A mutant at 10 mg/kg, ip after 2 hrs. The class given is ADME, organism-based. On the set-up: dose 10 mg/kg, route intraperitoneal. The note with it: read-out: Drug uptake.
Series [19] in a line: Drug uptake in brain of nontransgenic mouse at 10 mg/kg, ip after 4 hrs.
Series [20] in a line: Drug uptake in spinal cord of nontransgenic mouse at 10 mg/kg, ip after 24 hrs.
A short description of series [21]: Drug uptake in brain of mouse expressing SOD1 G93A mutant at 10 mg/kg, ip after 2 hrs. The class given is ADME, organism-based. On the set-up: dose 10 mg/kg, route intraperitoneal. The note with it: read-out: Drug uptake.
Where [22] appears, read: Mus musculus, Fibroblast, 48 h, read-out: IC50.

Active and inactive are the calls of the source. The calls are words filed in the database; no cut-off is given here.

`Brc1cccc(CSc2nnc(-c3ccncc3)o2)c1` displayed a relative SOD1 expression at 10 µM in the series on Fibroblast [1] of 91%.
For the compound `c1cncc(CSc2nnc(-c3ccncc3)o2)c1`, the inhibition result in the series on Fibroblast [2] is “inactive”.
Take `c1cc(CSc2nnc(-c3ccncc3)o2)ccn1`: the inhibition entry in the series on Fibroblast [2] was “inactive”.
Consider `Ic1ccc(CSc2nnc(-c3ccncc3)o2)cc1`, for which the relative SOD1 expression at 10 µM in the series with Fibroblast [1] was determined as 69%.
On the same count and under the same terms, under `Brc1ccc(CSc2nnc(-c3cccnc3)o2)cc1` stands 68.6%.
Regarding `O=C(CCl)c1cc(Br)c(Br)s1`, the IC50 in the series on Fibroblast [3] (setting [22]) amounted to 650 nM.
Turning to `Clc1ccc(CSc2nnc(-c3ccncc3)o2)cc1`, in the series with Fibroblast [1], the relative SOD1 expression at 10 µM is 123%.
The same measure, in the same setting: under `O=[N+]([O-])c1ccc(CSc2nnc(-c3ccncc3)o2)cc1` stands 102%.
Take `O=C1NC(=O)C(c2cn(CCCO)c3ncccc23)=C1c1cnccn1`: in the series with Fibroblast [3] (setting [22]), the IC50 was 10000 nM.
In turn, `FC(F)(F)c1ccc(CSc2nnc(-c3ccncc3)o2)cc1` yielded a relative SOD1 expression at 10 µM in the series on Fibroblast [1] of 157%.
For `COc1cccc(CSc2nnc(-c3ccncc3)o2)c1`, the inhibition entry in the series on Fibroblast [3] is “Dose-dependent effect”. The compound further had a relative SOD1 expression at 10 µM in the series with Fibroblast [1] of 50%.
Regarding `Ic1cccc(CSc2nnc(-c3ccncc3)o2)c1`, the concentration at 24 h was found to be 73 nM in series [4], 855 nM in series [9] and 77 nM in series [13]. In the series with Fibroblast [3], the inhibition result was “Dose-dependent effect”. Further, the IC50 with Fibroblast [3] (setting [22]) is 625 nM. The inhibition entry in the series with Mus musculus [5], in the series on Mus musculus [8], in the series on Mus musculus [10] and with Mus musculus [11] was “Active” throughout. Moreover, the concentration at 1 h in series [6] was 4000 nM; in series [7], 672 nM; in [12], 944 nM.
`Fc1ccc(CSc2nnc(-c3ccncc3)o2)cc1` returned a relative SOD1 expression at 10 µM in the series with Fibroblast [1] of 86%.
For the compound `O=C1Cc2c([nH]c3ccc(Br)cc23)-c2ccccc2N1` [KENPAULLONE], the IC50 in the series on Fibroblast [3] (setting [22]) was determined as 10000 nM.
`Clc1cccc(CSc2nnc(-c3ccncc3)o2)c1` displayed a relative SOD1 expression at 10 µM with Fibroblast [1] of 96%.
On the same count and under the same terms, under `Brc1ccc(CSc2nnc(-c3ccncc3)o2)cc1` stands 103%.
With `Cn1cc(C2=C(c3ccc(Cl)cc3Cl)C(=O)NC2=O)c2ccccc21` [SB-216763], the half-maximal inhibitory concentration (IC50) in the series with Fibroblast [3] (setting [22]) came out at 3000 nM.
In the case of `c1ccc(CSc2nnc(-c3ccncc3)o2)cc1`, the relative SOD1 expression at 10 µM in the series with Fibroblast [1] is 133%.
Consider `Cc1ccc(CSc2nnc(-c3ccncc3)o2)cc1`, for which the relative SOD1 expression at 10 µM in the series on Fibroblast [1] is 126%.
With `CCCCc1c(-c2ccc(O)cc2)[nH]c2nccnc12` [ALOISINE A], in the series with Fibroblast [3] (fibroblast), the IC50 entry is “Not Active”.
As to `COc1ccc(CSc2nnc(-c3ccncc3)o2)cc1`, the inhibition result in the series with Fibroblast [3] is “Dose-dependent effect”. The relative SOD1 expression at 10 µM in the series on Fibroblast [1] turned out to be 47%. Moreover, the concentration at 4 h in series [14] was 162 nM; in series [15] it was 334 nM; in series [19], 47 nM. Also, the Drug uptake entry with Brain was “Not Active”. The concentration at 2 h in series [16] was 153 nM; in series [18], 57 nM; in series [21], 29 nM. The concentration at 24 h in series [17] was determined as 123 nM; in series [20], 113 nM.
Consider `O=[N+]([O-])c1cccc(CSc2nnc(-c3ccncc3)o2)c1`, for which, in the series with Fibroblast [1], the relative SOD1 expression at 10 µM amounted to 117%.
